The target in this assay is T1, human MMP-13 catalytic domain (hMMP-13CD) (Homo sapiens, UniProt P45452).
T1 construct: a human MMP-13 catalytic domain (“hMMP-13CD”)
Nature of the assay: Inhibition of MMP-13 catalytic domain (thiopeptolide substrate hydrolysis, IC50). It counts as biochemical. The source says: The assays measure the amount by which a test compound reduces the hydrolysis of a thiopeptolide substrate catalyzed by a matrix metalloproteinase enzyme. Such assays are described in detail by Ye et al., in Biochemistry, 1992;31(45):11231-11235, which is incorporated herein by reference. One such assay is described below in Biological Method 1.
Some of the particular methods described below use the catalytic domain of the MMP-13 enzyme, namely matrix metalloproteinase-13 catalytic domain (“MMP-13CD”), rather than the corresponding full-length enzyme, MMP-13. It has been shown previously by Ye Qi-Zhuang, Hupe D., and Johnson L. (Current Medicinal Chemistry, 1996;3:407-418) that inhibitor activity against a catalytic domain of an MMP is predictive of the inhibitor activity against the respective full-length MMP enzyme.
Thiopeptolide substrates show virtually no decomposition or hydrolysis at or below neutral pH in the absence of a matrix metalloproteinase enzyme. A typical thiopeptolide substrate commonly utilized for assays is Ac-Pro-Leu-Glythioester-Leu-Leu-Gly-OEt. […] The change in absorbance at 405 nm is monitored on a Thermo Max microplate reader (molecular Devices, Menlo Park, Calif.) at room temperature (22° C.). […]
Some representative compounds of Formula I have been evaluated for their ability to inhibit MMP-13. […]

In general, pIC50 refers to −log10 of the IC50, conventionally taken in molar units. A lower pIC50 goes with a large IC50.

SMILES strings stand for the structures. pIC50: −log10 of the molar value.

`O=C(O)c1ccc(Cn2ccc3ccc(C#CCn4ccnn4)cc3c2=O)cc1` [4-[1-oxo-7-(3-[1,2,3]triazol-1-ylprop-1-ynyl)-1H-isoquinolin-2-ylmethyl]benzoic acid] gave a pIC50 of under 4.30.

For the origin of these results see US6974822B2, “3-isoquinolinone derivatives as matrix metalloproteinase inhibitors” (Warner-Lambert Company LLC, priority 2002, dated 2005).
